# What was measured:
# COX I = COX I (Homo sapiens, UniProt P23219); test: radiometric assay, COX I inhibition (human recombinant, baculovirus expressed, partially purified); format: biochemical; set-up: A 2 Kb fragment containing the coding region of COX I; made in house; host or cells: Sf9 insect cells, baculovirus (cDNA from Oxford Biomedical Research); settings: radiometric assay, human recombinant baculovirus expressed enzyme; read-out: COX I IC50 (Table 2)
# Experimental: (§1) Human prostaglandin G/H synthase I and II ("COX I" and "COX II") were expressed in the baculovirus expression system and purified to high levels.
# (§2) As described above, human recombinant COX I and COX II were cloned and expressed in a baculovirus system. Partially purified COX I and COX II enzymes were used for screening compounds for their ability to inhibit COX I and COX II activity, as described below.
# (§3) Compound (16), in 2 μl DMSO, and control samples (carrier vehicles only) were mixed with COX I or COX II samples (e.g. fractions from the chromatography columns) in polypropylene tubes and preincubated with 2 mM phenol for 5 minutes and then with 1 μM hematin for an additional 5 minutes. The 150 μl reaction mixture consisted of 50 mM Tris --HCl, pH 7.9, 2 mM EDTA, 10% glycerol, 200 μM phenol, 1 μM hematin, 1-25 μl sample and 20 μM 1-[^14 C] arachidonate (80.000-100.000 cpm/tube). After 45 seconds at room temperature, the reaction was terminated by adding 200 μl of 2N HCl and 750 μl water. An aliquot (950 μl) of the reaction mixture was loaded onto a 1 ml C~ Sep-Pak (J. T. Baker, Phillipsburg, N.J.) which had been previously washed with 2-3 ml methanol and equilibrated with 5-6 ml distilled water. Oxygenated products were quantitatively eluted with 3 ml of acetonitrile, H2 O and acetic acid (50:50:0.1, v/v) and the radioactivity in the eluate determined in a scintillation counter.
# (§4) Human recombinant 10 min incubation with Compound (16)
# (§5) baculovirus 45 sec incubation with 20 μM AA
# (§6) partially purified Separation of radioactive products
# COX II = target: T1, COX II (Homo sapiens, UniProt P35354); test: radiometric assay, COX II inhibition (human recombinant, baculovirus expressed, partially purified); format: biochemical; set-up: A 1.8 Kb DNA fragment containing the coding region of human COX II was generated by PCR; made in house; host or cells: Sf9 insect cells, baculovirus; settings: radiometric assay, human recombinant baculovirus expressed enzyme; read-out: COX II IC50 (Table 2)
# T1 sequence (P35354 18-604): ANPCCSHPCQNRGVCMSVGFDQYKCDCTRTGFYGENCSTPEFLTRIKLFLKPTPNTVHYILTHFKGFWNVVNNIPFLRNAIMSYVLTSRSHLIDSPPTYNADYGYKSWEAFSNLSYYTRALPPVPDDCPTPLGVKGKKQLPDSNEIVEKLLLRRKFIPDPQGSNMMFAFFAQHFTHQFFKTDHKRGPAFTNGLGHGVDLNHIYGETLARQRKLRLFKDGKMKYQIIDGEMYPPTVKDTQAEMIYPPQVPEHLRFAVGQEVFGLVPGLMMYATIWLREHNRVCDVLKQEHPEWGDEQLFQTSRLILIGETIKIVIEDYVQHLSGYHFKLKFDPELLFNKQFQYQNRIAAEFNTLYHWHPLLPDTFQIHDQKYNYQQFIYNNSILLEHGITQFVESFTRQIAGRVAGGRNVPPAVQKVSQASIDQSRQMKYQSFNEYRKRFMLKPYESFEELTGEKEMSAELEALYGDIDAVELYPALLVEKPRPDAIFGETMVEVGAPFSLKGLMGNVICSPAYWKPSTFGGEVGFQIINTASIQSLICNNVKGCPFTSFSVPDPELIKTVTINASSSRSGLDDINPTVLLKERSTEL
# Experimental: as §1, §2, §3, §4, §5, §6
# [1] = physical stability / phase transformation of crystal forms of Compound (16); format: physicochemical; settings: for conversion when suspended in alcohol or ethyl acetate: suspended in alcohol (Phase II: alcohol or ethyl acetate)
# Description: Phase I was obtained when Compound (16) was recrystallized from methanol, ethanol, ethanol/acetic acid, acetone, ethyl acetate, ethyl acetate/acetic acid, dichloromethane, tetrahydrofuran or tetrahydrofuran/ethyl acetate.
# Phase II was obtained when Compound (16) was recrystallized from toluene.
# Phase III was obtained by rapid precipitation of Compound (16) from acetic acid/water.
# Hydrate I, a monohydrate, was also obtained by slow recrystallization of Compound (16) from acetic acid/water.
# [2] = system: PGE2 levels in the air-pouch exudate; test: PGE2 in exudate of carrageenan-induced inflammation (air-pouch model) in rats; format: in vivo, rat; settings: 2-5 mg/kg
# [3] = system: adjuvant-induced arthritis; test: adjuvant-induced arthritis in the rat; format: in vivo; settings: second test
# stomach PGE2 = format: in vivo, rat; settings: 2-5 mg/kg
# Experimental: To examine the effect of Compound (16) on prostaglandin (PG) synthesis in inflamed tissues, Compound (16) was tested in a carrageenan-induced inflammation (air-pouch model) in rats. PGE2 levels in the air-pouch exudate were measured by enzyme immunoassay in rats treated with 0.1-30 mg/kg of Compound (16). […] […].
# To test the effects of Compound (16) on PG synthesis in non-inflamed tissue, PGE2 levels were measured in the stomach of rats from the above experiments. […]
# stomach and intestines = settings: general statement (background); cited from earlier work
# COX I, sequence (P23219 24-599): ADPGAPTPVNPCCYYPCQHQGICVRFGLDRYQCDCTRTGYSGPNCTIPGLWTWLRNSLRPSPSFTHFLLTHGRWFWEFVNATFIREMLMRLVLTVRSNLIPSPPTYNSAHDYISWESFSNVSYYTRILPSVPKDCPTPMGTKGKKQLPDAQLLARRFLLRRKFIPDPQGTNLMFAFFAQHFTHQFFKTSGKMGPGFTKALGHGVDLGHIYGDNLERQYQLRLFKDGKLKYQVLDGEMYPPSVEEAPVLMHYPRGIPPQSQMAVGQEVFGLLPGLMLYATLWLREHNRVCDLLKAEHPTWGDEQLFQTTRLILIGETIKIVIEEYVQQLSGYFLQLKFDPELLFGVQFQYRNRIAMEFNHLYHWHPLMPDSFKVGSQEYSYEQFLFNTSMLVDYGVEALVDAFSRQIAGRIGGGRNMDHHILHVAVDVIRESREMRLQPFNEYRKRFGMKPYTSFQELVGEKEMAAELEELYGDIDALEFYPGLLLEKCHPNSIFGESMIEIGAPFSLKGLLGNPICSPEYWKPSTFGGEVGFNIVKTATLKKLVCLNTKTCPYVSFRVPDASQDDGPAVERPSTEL
smiles,measurement,setting,value
"CC(=O)OCn1nc(Cc2cc(C)c(C(=O)c3ccc(Cl)cc3)n2C)ccc1=O [Compound 161, acetic acid 2-{3-[5-(4-chloro-benzoyl)-1,4,-dimethyl-1H-pyrrol-2-ylmethyl]-6-oxo-6H-pyridazin-1-yl}-methyl ester]",IC50,COX I,64.7 µM
same,IC50,COX II,0.61 µM
"COc1ccc(Cn2nc(Cc3cc(C)c(C(=O)c4ccc(Cl)cc4)n3C)ccc2=O)cc1 [Compound 168, 6-[5-(4-chloro-benzoyl)-1,4,-dimethyl-1H-pyrrol-2-ylmethyl]-2-(4-methoxybenzyl)-2H-pyridazin-3-one]",IC50,COX I,7.9 µM
same,IC50,COX II,0.91 µM
Cc1cc(Cc2ccc(=O)[nH]n2)n(C)c1C(=O)c1ccc(Cl)cc1 [Hydrate I],"physical stability, duration",[1]; 40° C./75% relative humidity,14 days
same,physical stability,"[1]; 40° C./ambient relative humidity, within 11-95% relative humidity",physically stable
same,conversion on heating at 120° C.,[1]; 120° C.,phase conversion to another anhydrous crystal form
same,dehydration at temperatures below 100° C.,"[1]; below 100° C., ambient conditions and 23% relative humidity",produced a metastable form that converted back to Hydrate I
same,conversion when suspended in alcohol or ethyl acetate,[1],can be converted back to Phase I
Cc1cc(Cc2ccc(=O)[nH]n2)n(C)c1C(=O)c1ccc(Cl)cc1 [Phase III],conversion when suspended in alcohol or ethyl acetate,[1],converted to Phase I
same,conversion when suspended in water,[1],converted to Hydrate I
Cc1cc(Cc2ccc(=O)[nH]n2)n(C)c1C(=O)c1ccc(Cl)cc1 [Phase II],conversion when suspended in alcohol or ethyl acetate,[1],converted to Phase I
same,conversion when suspended in water,[1],"converted to another hydrate, Hydrate II"
Cc1cc(Cc2ccc(=O)[nH]n2)n(C)c1C(=O)c1ccc(Cl)cc1 [Phase I],phase transformation on milling and micronization,[1]; milling and micronization,did not cause any phase transformation
same,conversion when suspended in water,[1],"converted to a monohydrate, Hydrate I"
same,physically stable for,"[1]; unmilled (-200 μm), 40° C./75% relative humidity",at least 4 days
"COc1ccc2c(c1)c(CC(=O)O)c(C)n2C(=O)c1ccc(Cl)cc1 [indomethacin, reference compound]",inhibition of PGE2 in the exudates,[2],> 70%
same,inhibition of adjuvant-induced arthritis,[3]; 0.3 mg/kg/day,66%
same,inhibition of adjuvant-induced arthritis,[3]; 0.6 mg/kg/day,79%
same,inhibition of stomach PGE2,stomach PGE2,> 80%
same,corrosiveness to the stomach and intestines of rats,stomach and intestines,highly corrosive to the stomach and intestines of rats

# — patent US5622948A, “Pyrrole pyridazine and pyridazinone anti-inflammatory agents” (Syntex (U.S.A.) Inc., priority 1994, dated 1997)
